From ChEMBL document CHEMBL5465560, “Selectivity Literature for EUbOPEN Chemogenomic Library” (2024)
One block for each molecule: values may come before it.

Columns and labels:
Activated CDC42 kinase 1 = Activated CDC42 kinase 1 (Homo sapiens, UniProt Q07912); test: Selectivity interaction (KinomeScan (DiscoverX)) EUB0001049a TNK2; conditions: at 1 µM
[1] = biological target: Microtubule-associated serine/threonine-protein kinase 1 (Homo sapiens) (UniProt Q9Y2H9); test: Selectivity interaction (ActivX KiNativ screen (kinase selectivity in THP-1 cell lysates)) EUB0000639a MAST1; type: subcellular; conditions: lysate
Sequence of Microtubule-associated serine/threonine-protein kinase 1 (Homo sapiens) (Q9Y2H9 whole entry, looked up, canonical isoform): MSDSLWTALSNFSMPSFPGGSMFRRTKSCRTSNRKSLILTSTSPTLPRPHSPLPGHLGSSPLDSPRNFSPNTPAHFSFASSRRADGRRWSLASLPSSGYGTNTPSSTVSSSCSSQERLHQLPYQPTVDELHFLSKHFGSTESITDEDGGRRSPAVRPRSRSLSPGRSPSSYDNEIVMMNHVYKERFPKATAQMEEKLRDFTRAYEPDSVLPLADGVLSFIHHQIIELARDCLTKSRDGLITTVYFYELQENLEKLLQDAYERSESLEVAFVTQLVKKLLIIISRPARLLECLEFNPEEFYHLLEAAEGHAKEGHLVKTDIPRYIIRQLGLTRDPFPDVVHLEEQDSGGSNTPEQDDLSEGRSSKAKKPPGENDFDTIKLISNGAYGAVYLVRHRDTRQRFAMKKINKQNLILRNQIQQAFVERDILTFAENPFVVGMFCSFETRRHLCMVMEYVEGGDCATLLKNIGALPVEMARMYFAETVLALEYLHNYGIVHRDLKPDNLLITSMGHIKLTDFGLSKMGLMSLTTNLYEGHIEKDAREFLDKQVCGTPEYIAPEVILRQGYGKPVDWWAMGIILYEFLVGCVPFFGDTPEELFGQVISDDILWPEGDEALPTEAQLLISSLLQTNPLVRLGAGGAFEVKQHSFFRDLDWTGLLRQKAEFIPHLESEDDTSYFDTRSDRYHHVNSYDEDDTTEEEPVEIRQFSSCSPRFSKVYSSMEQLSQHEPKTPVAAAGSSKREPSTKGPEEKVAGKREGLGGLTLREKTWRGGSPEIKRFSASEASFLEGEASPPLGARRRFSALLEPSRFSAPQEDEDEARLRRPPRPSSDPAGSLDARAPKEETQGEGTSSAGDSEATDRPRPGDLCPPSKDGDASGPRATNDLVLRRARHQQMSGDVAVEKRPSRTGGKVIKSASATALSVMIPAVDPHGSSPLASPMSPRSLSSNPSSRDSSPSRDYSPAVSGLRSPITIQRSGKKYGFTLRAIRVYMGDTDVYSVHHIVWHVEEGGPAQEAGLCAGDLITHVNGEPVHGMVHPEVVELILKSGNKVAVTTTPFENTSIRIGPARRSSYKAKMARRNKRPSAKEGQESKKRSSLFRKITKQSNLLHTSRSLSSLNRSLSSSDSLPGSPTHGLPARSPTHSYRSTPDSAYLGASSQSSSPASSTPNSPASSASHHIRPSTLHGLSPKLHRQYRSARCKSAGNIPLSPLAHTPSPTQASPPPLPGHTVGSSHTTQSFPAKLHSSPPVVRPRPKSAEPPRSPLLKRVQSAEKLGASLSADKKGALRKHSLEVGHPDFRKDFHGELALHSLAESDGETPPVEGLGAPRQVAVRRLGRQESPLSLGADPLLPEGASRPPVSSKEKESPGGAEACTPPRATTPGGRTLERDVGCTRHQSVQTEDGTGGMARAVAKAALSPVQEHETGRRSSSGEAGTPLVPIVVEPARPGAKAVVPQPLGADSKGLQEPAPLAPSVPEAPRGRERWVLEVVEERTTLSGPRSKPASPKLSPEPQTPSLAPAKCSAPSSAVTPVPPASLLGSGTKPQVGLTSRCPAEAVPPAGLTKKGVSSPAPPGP

[2] = biological target: T1, Phosphatidylinositol 4,5-bisphosphate 3-kinase catalytic subunit delta isoform (Homo sapiens) (UniProt O00329); test: Selectivity interaction (ActivX KiNativ screen (kinase selectivity in THP-1 cell lysates)) EUB0000639a PIK3CD; type: subcellular; conditions: lysate, at 0.2 µM
T1 sequence (whole entry): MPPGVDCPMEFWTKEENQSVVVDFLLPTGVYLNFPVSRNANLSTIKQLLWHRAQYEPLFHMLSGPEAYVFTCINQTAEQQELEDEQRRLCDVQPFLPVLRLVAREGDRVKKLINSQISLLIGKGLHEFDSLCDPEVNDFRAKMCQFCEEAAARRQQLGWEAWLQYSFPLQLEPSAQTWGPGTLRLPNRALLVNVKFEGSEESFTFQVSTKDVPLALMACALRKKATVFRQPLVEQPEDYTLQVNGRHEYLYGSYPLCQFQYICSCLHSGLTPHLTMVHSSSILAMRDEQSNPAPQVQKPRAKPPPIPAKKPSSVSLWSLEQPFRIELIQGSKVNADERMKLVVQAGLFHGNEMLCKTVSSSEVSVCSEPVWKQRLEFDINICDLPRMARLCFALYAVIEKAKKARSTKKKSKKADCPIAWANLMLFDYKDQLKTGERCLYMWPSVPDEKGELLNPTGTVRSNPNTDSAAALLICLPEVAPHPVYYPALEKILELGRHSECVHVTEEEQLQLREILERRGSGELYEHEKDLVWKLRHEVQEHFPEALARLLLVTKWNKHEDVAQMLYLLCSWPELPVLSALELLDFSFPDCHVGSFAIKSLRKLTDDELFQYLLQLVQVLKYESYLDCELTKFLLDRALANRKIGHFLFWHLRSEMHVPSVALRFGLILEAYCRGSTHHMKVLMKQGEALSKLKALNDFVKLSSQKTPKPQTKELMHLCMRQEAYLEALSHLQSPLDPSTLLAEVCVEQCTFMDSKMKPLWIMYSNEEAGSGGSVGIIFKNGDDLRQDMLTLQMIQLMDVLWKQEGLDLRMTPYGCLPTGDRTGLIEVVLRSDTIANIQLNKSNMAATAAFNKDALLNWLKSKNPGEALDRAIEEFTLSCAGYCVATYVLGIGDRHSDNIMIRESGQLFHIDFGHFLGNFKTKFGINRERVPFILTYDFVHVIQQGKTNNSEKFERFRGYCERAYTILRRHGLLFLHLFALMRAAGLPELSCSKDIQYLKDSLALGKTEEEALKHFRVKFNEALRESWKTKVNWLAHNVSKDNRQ

[3] = biological target: Vascular endothelial growth factor receptor 1 (Homo sapiens) (UniProt P17948); test: Selectivity interaction (Kinase panel (Z-LYTE Assay)) EUB0001632a FLT1; conditions: at 10 µM
[4] = biological target: T2, NUAK family SNF1-like kinase 1 (Homo sapiens) (UniProt O60285); conditions: at 10 µM
T2 sequence (whole entry): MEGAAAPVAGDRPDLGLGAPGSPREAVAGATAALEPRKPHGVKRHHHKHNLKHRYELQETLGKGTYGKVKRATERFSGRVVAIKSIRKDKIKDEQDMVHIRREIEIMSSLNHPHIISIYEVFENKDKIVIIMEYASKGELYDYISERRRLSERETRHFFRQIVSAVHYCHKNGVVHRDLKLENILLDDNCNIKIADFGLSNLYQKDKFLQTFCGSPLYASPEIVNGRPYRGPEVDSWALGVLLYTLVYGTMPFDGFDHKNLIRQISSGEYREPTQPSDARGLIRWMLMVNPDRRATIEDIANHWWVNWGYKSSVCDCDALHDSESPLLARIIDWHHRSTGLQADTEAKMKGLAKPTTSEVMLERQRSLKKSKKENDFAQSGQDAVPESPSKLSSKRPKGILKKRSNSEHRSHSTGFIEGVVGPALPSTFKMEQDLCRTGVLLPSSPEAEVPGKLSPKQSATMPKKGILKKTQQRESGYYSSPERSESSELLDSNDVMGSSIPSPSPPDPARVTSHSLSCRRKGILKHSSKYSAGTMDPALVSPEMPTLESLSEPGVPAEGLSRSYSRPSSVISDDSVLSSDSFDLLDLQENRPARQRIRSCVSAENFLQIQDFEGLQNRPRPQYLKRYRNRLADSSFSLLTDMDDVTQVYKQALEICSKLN

[5] = biological target: Calcium/calmodulin-dependent protein kinase kinase 2 (Homo sapiens) (UniProt Q96RR4); test: Selectivity interaction (KinomeScan (DiscoverX)) EUB0001079a CAMKK2; conditions: at 1 µM
[6] = biological target: CDK12/Cyclin K (Homo sapiens) (UniProt O75909+Q9NYV4); test: (§1) Selectivity interaction (ProQinase) EUB0000171b CDK12; type: protein-complex assay
Sequence of CDK12/Cyclin K (Homo sapiens) (O75909 whole entry, looked up): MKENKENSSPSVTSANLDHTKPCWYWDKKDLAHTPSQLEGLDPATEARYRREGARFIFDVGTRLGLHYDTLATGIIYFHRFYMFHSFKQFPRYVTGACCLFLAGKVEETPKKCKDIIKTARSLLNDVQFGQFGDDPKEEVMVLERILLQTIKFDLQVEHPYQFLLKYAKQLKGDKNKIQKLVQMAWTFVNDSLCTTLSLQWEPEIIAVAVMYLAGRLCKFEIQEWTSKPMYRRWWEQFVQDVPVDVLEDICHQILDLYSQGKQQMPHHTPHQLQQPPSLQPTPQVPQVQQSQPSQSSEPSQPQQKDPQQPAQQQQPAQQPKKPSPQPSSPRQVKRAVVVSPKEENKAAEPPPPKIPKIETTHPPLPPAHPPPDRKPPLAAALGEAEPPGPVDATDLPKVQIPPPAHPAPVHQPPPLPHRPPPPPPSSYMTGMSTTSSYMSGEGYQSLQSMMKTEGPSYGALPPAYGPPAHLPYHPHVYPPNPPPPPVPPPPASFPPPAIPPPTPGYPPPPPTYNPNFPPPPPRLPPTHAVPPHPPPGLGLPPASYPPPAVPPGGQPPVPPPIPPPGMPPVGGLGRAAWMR
Sequence of CDK12/Cyclin K (Homo sapiens) (Q9NYV4 whole entry, looked up): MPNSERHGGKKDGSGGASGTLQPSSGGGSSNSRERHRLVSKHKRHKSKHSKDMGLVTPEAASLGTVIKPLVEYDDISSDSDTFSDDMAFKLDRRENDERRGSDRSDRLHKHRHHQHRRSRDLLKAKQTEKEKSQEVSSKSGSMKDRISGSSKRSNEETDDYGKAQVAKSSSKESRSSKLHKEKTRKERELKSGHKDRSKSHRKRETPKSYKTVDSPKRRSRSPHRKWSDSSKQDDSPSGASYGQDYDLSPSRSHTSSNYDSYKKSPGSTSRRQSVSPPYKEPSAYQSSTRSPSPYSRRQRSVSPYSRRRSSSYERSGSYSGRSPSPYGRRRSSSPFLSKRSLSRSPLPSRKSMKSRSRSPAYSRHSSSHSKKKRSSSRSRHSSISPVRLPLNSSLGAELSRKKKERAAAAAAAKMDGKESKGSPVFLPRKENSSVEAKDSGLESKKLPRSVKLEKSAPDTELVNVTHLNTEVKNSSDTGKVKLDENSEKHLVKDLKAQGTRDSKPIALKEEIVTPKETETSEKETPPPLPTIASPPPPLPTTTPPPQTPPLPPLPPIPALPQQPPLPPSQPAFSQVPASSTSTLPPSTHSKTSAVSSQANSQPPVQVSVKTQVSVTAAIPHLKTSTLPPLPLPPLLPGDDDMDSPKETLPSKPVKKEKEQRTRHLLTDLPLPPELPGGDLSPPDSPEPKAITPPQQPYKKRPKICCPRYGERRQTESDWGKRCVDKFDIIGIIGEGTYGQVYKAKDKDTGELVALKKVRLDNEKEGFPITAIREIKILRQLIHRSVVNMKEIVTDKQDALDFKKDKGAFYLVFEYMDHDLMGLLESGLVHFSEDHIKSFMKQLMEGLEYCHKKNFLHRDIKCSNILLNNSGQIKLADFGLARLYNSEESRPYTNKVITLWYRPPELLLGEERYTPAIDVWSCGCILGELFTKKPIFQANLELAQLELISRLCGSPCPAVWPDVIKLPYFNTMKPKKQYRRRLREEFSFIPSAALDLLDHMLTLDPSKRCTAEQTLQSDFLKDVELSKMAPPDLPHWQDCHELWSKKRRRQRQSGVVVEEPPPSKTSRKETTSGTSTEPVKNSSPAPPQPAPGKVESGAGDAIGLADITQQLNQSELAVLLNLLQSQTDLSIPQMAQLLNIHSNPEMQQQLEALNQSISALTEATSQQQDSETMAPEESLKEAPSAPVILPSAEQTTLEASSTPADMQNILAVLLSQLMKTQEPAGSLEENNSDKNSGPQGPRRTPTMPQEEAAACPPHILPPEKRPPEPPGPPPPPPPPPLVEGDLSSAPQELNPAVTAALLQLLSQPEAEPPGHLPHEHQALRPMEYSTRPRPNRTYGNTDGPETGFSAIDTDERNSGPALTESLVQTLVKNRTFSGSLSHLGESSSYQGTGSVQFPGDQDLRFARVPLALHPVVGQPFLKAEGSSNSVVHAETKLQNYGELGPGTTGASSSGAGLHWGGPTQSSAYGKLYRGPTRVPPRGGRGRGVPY

[7] = system: CDK12/Cyclin K (Homo sapiens), O75909+Q9NYV4 [R722C]; test: as §1; type: protein-complex assay; conditions: at 5 µM
[8] = system: Tyrosine-protein kinase ABL1 (Homo sapiens), P00519 [Q252H]; test: Selectivity interaction (KinomeScan (DiscoverX)) EUB0000092b ABL1; conditions: at 10 µM
[9] = biological target: SRSF protein kinase 3 (Homo sapiens) (UniProt Q9UPE1); test: Selectivity interaction (Upstate Kinase Profiler service (Millipore)) EUB0000056c SRPK3; conditions: at 1 µM
Sequence of SRSF protein kinase 3 (Homo sapiens) (Q9UPE1 whole entry, canonical isoform): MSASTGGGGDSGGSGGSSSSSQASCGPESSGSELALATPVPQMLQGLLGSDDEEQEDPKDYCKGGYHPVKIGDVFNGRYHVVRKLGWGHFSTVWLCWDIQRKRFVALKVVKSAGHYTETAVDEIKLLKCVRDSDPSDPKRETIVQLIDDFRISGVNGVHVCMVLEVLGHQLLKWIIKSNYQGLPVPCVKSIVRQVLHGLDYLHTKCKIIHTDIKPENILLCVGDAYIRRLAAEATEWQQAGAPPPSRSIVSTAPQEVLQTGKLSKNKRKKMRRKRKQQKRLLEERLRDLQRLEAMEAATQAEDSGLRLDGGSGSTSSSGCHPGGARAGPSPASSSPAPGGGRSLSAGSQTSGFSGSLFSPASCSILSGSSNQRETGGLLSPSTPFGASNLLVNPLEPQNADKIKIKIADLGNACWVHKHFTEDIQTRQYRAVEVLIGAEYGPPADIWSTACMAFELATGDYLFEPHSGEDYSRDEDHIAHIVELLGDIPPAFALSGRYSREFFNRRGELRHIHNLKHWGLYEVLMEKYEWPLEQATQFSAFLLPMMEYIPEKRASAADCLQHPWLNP

[10] = biological target: T3, Casein kinase I isoform alpha-like (Homo sapiens) (UniProt Q8N752); test: Selectivity interaction (KinomeScan (DiscoverX)) EUB0000045b CSNK1A1L
T3 sequence (whole entry): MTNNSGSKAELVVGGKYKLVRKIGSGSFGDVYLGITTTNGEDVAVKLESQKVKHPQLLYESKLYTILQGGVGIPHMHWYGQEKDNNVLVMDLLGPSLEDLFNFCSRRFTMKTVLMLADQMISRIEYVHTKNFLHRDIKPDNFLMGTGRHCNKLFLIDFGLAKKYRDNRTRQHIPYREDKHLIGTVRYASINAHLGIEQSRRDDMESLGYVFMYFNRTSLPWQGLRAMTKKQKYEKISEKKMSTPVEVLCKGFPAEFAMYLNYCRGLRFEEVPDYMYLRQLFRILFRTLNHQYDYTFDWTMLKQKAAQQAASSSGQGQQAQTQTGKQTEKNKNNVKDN

[11] = biological target: Ribosomal protein S6 kinase alpha-6 (Homo sapiens, UniProt Q9UK32); test: Selectivity interaction (KinomeScan (DiscoverX)) EUB0000045b RPS6KA6
Sequence of Ribosomal protein S6 kinase alpha-6 (Q9UK32 whole entry): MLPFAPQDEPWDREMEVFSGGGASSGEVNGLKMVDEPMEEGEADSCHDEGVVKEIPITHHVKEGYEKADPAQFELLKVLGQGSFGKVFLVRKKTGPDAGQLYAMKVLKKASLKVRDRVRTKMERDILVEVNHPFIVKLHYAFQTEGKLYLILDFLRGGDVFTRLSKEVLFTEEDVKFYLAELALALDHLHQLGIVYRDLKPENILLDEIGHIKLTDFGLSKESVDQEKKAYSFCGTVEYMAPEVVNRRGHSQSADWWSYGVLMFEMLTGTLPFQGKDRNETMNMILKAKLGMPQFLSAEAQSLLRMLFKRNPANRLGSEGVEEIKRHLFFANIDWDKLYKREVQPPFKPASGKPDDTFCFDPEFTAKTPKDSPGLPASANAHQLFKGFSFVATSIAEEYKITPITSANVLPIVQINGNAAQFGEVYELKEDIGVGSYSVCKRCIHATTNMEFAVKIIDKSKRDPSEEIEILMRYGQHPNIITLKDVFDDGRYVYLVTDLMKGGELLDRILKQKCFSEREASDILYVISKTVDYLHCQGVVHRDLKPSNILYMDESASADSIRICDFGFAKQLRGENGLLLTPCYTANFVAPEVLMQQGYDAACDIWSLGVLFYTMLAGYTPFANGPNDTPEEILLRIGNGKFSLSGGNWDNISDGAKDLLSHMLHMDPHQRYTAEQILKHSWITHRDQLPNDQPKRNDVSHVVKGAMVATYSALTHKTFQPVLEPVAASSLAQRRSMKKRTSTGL

[12] = biological target: Vascular endothelial growth factor receptor 2 (Homo sapiens, UniProt P35968); test: Selectivity interaction (KinomeScan (DiscoverX)) EUB0000618a KDR; conditions: at 10 µM

% of inhibition ([1]; at 0.01 µM): -0.4% | % of inhibition ([1]; at 0.04 µM): -2.4% | % of inhibition ([1]; at 0.2 µM): -2.5% | % of inhibition ([1]; at 1 µM): -1.4% | % of inhibition ([1]; at 5 µM): -30.3% | % of inhibition [2]: 4.7%
Structure (SMILES): CC[C@@H]1[C@H](F)C(=O)N[C@@H]1COc1nccc2cc(C(N)=O)c(OC)cc12 [ZIMLOVISERTIB]

% of control [3]: 1.04%
Structure (SMILES): Cn1cc(-n2cnc3c(NCc4nc5cc(Cl)c(Cl)cc5[nH]4)nc(N4CCOCC4)nc32)cn1

% of control [4]: 100%
Structure (SMILES): CCN(CC)CCCCNc1ncc2cc(-c3cc(OC)cc(OC)c3)c(NC(=O)NC(C)(C)C)nc2n1

% of control ([6]; at 1 µM): 93% | % of control ([6]; at 5 µM): 57% | % of control [7]: 66%
Structure (SMILES): C=CC(=O)Nc1cccc(C(=O)Nc2ccc(Nc3cc(-c4[nH]c(SC)nc4C)ccn3)cc2)c1

% of inhibition [9]: 36%
Structure (SMILES): Cc1ccc(-c2ccc3c(ccc4sc5c(c43)NC[C@@H](C)NC5=O)n2)cn1

Further lines, the molecule ahead of its results:

Structure (SMILES): COc1cc(Nc2nc(C)cc(-c3cnn4nc(OC)ccc34)n2)cc(C(F)(F)F)c1
% of control (Activated CDC42 kinase 1): 77%

Structure (SMILES): Nc1cnc(N2CCc3cc(S(=O)(=O)Nc4c(F)cc(Cl)cc4F)cc(N4CCCC4=O)c32)nc1 [TP-020n]
% of control [5]: 100%

Structure (SMILES): CCC(=O)N1CCN(c2ccc(-n3c(=O)ccc4cnc5ccc(-c6cnc7ccccc7c6)cc5c43)cc2C(F)(F)F)CC1
% of control [8]: 99%

Structure (SMILES): C=CC(=O)Nc1cc(-n2c(=O)ccc3cnc4ccc(-c5ccc(NS(C)(=O)=O)cc5)cc4c32)ccc1C
% of control ([10]; at 1 µM): 100% | % of control ([10]; at 10 µM): 100% | % of control ([11]; at 1 µM): 100% | % of control ([11]; at 10 µM): 56%

Structure (SMILES): O[C@H]1CC[C@H](Nc2ncc3nc(Nc4c(F)cc(F)cc4F)n([C@H]4CCOC4)c3n2)CC1
% of control [12]: 100%
